According to article PMC12627933, “A First-In-Human Study of the SUMOylation Inhibitor Subasumstat in Patients with Advanced/Metastatic Solid Tumors or Relapsed/Refractory Hematologic Malignancies” (Cancer Research Communications, 2025):
Entries after “also recorded” stand apart in the source; their conditions may differ.

Columns and labels:
[1] = system: lymphoma and pancreatic cancer xenografts; design: method as in PMID 33631934; conditions: cited from earlier work
[2] = system: advanced/metastatic solid tumors and relapsed/refractory hematologic malignancies; test: Clinical activity (RECIST v1.1 / Lugano criteria); type: in vivo, human; conditions: for DCR: 95% CI; for Patients with best response of SD: 90 mg twice weekly
Experimental: Disease response and progression were assessed for up to 48 months using CT and/or MRI scans with intravenous contrast and ^18fluorodeoxyglucose-PET imaging according to RECIST v1.1 criteria for solid tumors or Lugano criteria for lymphoma response ([21]).
It was anticipated that approximately 70 DLT-evaluable patients would be enrolled for dose escalation. The safety analysis set included all patients who received at least one dose, even if incomplete, of subasumstat. The tumor response–evaluable set included patients who received at least one dose of subasumstat, had sites of measurable disease at baseline and one post-baseline disease assessment, or discontinued treatment because of symptomatic deterioration or death prior to post-baseline evaluation. The overall response rate (ORR) was defined as the proportion of patients who achieved complete response and partial response (PR) during the study. The disease control rate (DCR) was defined as the proportion of patients who achieved […] as per RECIST v1.1 for solid tumors or Lugano classification for lymphomas. Both ORR and DCR were estimated with two-sided 95% exact binomial confidence intervals (CI). Progression-free survival was summarized descriptively using the Kaplan–Meier method.

[3] = cited from earlier work
[4] = Dose-limiting toxicities in cycle 1 and determination of MTD/RP2D (phase I dose escalation); type: in vivo; conditions: for n with DLTs during cycle 1: N = 6
Experimental: This study comprised two parts: a phase I dose escalation and a phase II dose expansion (Fig. 1). In the dose-escalation phase, patients were enrolled to receive subasumstat intravenously as a 1-hour (±10 minutes) infusion on days 1, 4, 8, and 11 of a 21-day cycle (biweekly schedule). […] Dose escalation was based on cohort with an adaptive design using Bayesian logistic regression modeling with overdose control. The starting dose of subasumstat was based on Good Laboratory Practice animal toxicity studies and supported by the estimation of a minimum anticipated biologically effective level. A detailed description of dose-limiting toxicities (DLT) is presented in the Supplementary Methods.
The occurrence of DLTs was assessed during cycle 1 (DLTs are described in the Supplementary Methods). Treatment-emergent adverse events (TEAE) were graded according to NCI Common Terminology Criteria for Adverse Events version 5.0, except for cytokine release syndrome (CRS), which was graded according to the American Society for Transplantation and Cellular Therapy Consensus Grading for CRS ([20]).
It was anticipated that approximately 70 DLT-evaluable patients would be enrolled for dose escalation. The safety analysis set included all patients who received at least one dose, even if incomplete, of subasumstat. […] The overall response rate (ORR) was defined as the proportion of patients who achieved complete response and partial response (PR) during the study. The disease control rate (DCR) was defined as the proportion of patients who achieved […] as per RECIST v1.1 for solid tumors or Lugano classification for lymphomas. […] Progression-free survival was summarized descriptively using the Kaplan–Meier method.
17. History of allogeneic tissue or solid organ transplant.
18. Second malignancy within the previous 3 years, except treated basal cell or localized squamous skin carcinomas, localized prostate cancer, cervical carcinoma in situ, resected colorectal adenomatous polyps, breast cancer in situ, or other malignancy for which the patient is not on active anticancer therapy.
19. Female patients who are lactating and breastfeeding or have a positive serum pregnancy test during the screening period or a positive urine pregnancy test on day 1 before first dose of study drug.
Definition of dose-limiting toxicities (DLTs) for phase I only
DLTs were defined as any AEs occurring in cycle 1 (unless considered unrelated to the study drug) with the following characteristics:
2. Nonfebrile grade 4 neutropenia (absolute neutrophil count [ANC] <0.5 ×
If myeloid growth factors are used, the event will be considered as DLT irrespective of the duration. […]
temperature of ≥38°C for ≥1 hour.
4. Grade 4 thrombocytopenia lasting ≥7 consecutive days. A platelet count <10
5. Grade 3 thrombocytopenia lasting longer than 14 days or accompanied by grade 2 bleeding or requiring transfusion.
6. Delay in the initiation of cycle 2 by ≥14 days due to a lack of adequate recovery of treatment-related hematological or nonhematologic toxicities.
7. Grade ≥3 nonhematologic toxicity with the following exceptions:
• Grade 3 arthralgia/myalgia that responds to nonsteroidal anti-inflammatory […]
• Grade 3 fatigue lasting fewer than 7 days.
• Grade 3 endocrine disorder that is managed with or without therapy and the patient is asymptomatic.
• Grade 3 or 4 inflammatory reaction attributed to a local antitumor […]
• Grade 3 infusion-related actions that resolves within 6 hours with appropriate clinical management.
• Grade 3 cytokine release syndrome that resolves to grade ≤1 in less than 7 days without end-organ damage.
• Asymptomatic laboratory changes (other than renal and hepatic laboratory values) that can be successfully supplemented (reversion of grade 4

relapsed/refractory NHL = system: relapsed/refractory NHL; design: method as in ref 19 = [19]; 19. Assouline S , Mehta A , Phillips T , Alinari L , Danilov AV , Doucet S , . TAK-981, a first-in-class SUMO-activating enzyme inhibitor, combined with rituximab in adult patients (Pts) with CD20-pos; conditions: in combination with rituximab; 24 patients with relapsed/refractory NHL; cited from earlier work
[5] = phase II NSCLC expansion cohort
[6] = phase II cervical cancer expansion cohort

In the case of Cc1sc(C(=O)c2cncnc2N[C@@H]2C[C@H](COS(N)(=O)=O)[C@@H](O)C2)cc1[C@@H]1NCCc2ccc(Cl)cc21 [subasumstat], the Antitumor activity ([1]; immunocompromised mice) is listed as “shows antitumor activity”, the SUMOylation in tumors ([1]; xenograft models) is listed as “inhibits SUMOylation in tumors” and the “Patients with confirmed PR” value ([2]; 99 response-evaluable patients, both phases, 40, 90 and 120 mg twice weekly) is listed as “three”. The “Patients with confirmed PR” value ([2]; overall) was 3%, the “Best response of SD” value ([2]; overall, 26 patients) was 26.3% and the DCR ([2]; overall, n = 29/99, 20.57–39.29) was 29.3%. The DCR ([2]; phase I, n = 21/75, 18.24–39.56) was 28%, the Median progression-free survival [2, 5] was 6.06 months and the “Patients with best response of SD” value [2, 5] was “four of seven”. For the same molecule, the Median progression-free survival [2, 6] was 3.78 months, the “Patients with best response of SD” value [2, 6] was “two of three” and the DCR ([2]; phase II, n = 8/24, 15.63–55.32) was 33%. For the same molecule, the Lymphopenia ([3]; A20 lymphoma–bearing BALB/c mice) was “transient lymphopenia”, the B-cell depletion ([3]; mouse model of pancreatic ductal adenocarcinoma) was “transient B-cell depletion” and the Systemic toxicities ([3]; preclinical mouse models) was “No systemic toxicities were observed”. The “n with DLTs during cycle 1” value ([4]; 60 mg BIW) was 1, the “Description of DLT” value ([4]; 60 mg BIW, subasumstat reduced to 40 mg BIW) was “Transient grade 3 ALT/AST” and the “n with DLTs during cycle 1” value ([4]; 90 mg BIW) was 1. The “Description of DLT” value ([4]; 90 mg BIW, study treatment discontinued) was “Grade 3 pneumonitis”, the “n with DLTs during cycle 1” value ([4]; 120 mg BIW) was 2 and the “Description of DLT” value ([4]; 120 mg BIW, n = 1 each) was “Grade 3 stomatitis; also recorded: Grade 3 cognitive disorder”. For the same molecule, the “Biologically / pharmacodynamically active dose” value ([4]; across a range of pharmacodynamic measures) was at least 60 mg, the “Patients reporting DLTs” value ([4]; phase I, 74 of 84 DLT-evaluable, all in twice weekly cohorts) was “four” and the MTD ([4]; twice weekly (days 1, 4, 8, 11 of 21-day cycle), intravenous) was 120 mg. For the same molecule, the “Recommended phase II dose (RP2D)” value ([4]; twice weekly, intravenous) was 90 mg and the ORR (relapsed/refractory NHL) was 29%.
